Values of other authors, collected in article PMC12128972, “TYRA-300, an FGFR3-selective inhibitor, promotes bone growth in two FGFR3-driven models of chondrodysplasia” (JCI Insight, 2025).

Columns and labels:
[1] = system: growth plate chondrocytes of Fgfr3^Y367C/+ mice; conditions: previous studies; cited from earlier work
[2] = system: Fgfr3^Y367C/+ mouse model, which mimics the phenotype of ACH; parameters: method as in PMID 27064282, PMID 23200862; conditions: infigratinib 2 mg/kg, starting at 7 days of age for 10 days; cited from earlier work
[3] = system: Fgfr3^G374R mouse model of ACH; conditions: treatment initiated 1 day after birth; cited from earlier work
children with ACH = system: children with ACH; parameters: method as in earlier work; conditions: children with ACH aged 5-12 years, once daily s.c.; 95% CI 1.22-1.97; cited from earlier work

Compound | type X collagen staining in the HZCs [1] | bone growth compared with vosoritide (800 μg/kg) [2] | premature fusion of the intersphenoidal synchondrosis [3] | increase from baseline of average linear growth velocity greater than placebo (children with ACH) [cm/year]
CCN1CCN(c2ccc(Nc3cc(N(C)C(=O)Nc4c(Cl)c(OC)cc(OC)c4Cl)ncn3)cc2)CC1 [infigratinib] | partial restoration | more bone growth than vosoritide | did not rescue premature fusion | 
vosoritide: C-natriuretic peptide (CNP) analog that is a once daily subcutaneous injection (PGQEHPNARKYKGANKKGLSKGCFGLKLDRIGSMSGLGC; chains of the INN, looked up) | partial restoration |  |  | 1.57
